Measured values taken from PMC7203973 (ACS Omega, 2020).

Columns and labels:
[1] = cited from earlier work
[2] = marketed drugs; cited from earlier work
[3] = cited from earlier work; remark: listed apart in the source
Permeability by PAMPA = type: in vitro ADME
[4] = cited from earlier work; remark: listed apart in the source
[5] = cited from earlier work; remark: listed apart in the source

Q: For CO[C@H]1C[C@@H]2CC[C@@H](C)[C@@](O)(O2)C(=O)C(=O)N2CCCC[C@H]2C(=O)O[C@H]([C@H](C)C[C@@H]2CC[C@@H](O)[C@H](OC)C2)CC(=O)[C@H](C)/C=C(\C)[C@@H](O)[C@@H](OC)C(=O)[C@H](C)C[C@H](C)/C=C/C=C/C=C/1C [rapamycin], which “blood-to-plasma ratio (KRBC/Plasma), reported in the literature” value (shortened to “blood-to-plasma ratio (KRBC/Plasma)”) [1] is on record?
A: Its value is 3.5 ± 0.5.

Q: Which “stability in rat plasma versus human plasma” value [2] does the source give for CCOC(=O)[C@H](CCc1ccccc1)N[C@@H](C)C(=O)N1CCC[C@H]1C(=O)O [enalapril] here?
A: Its value is “very less stable in rat plasma but more stable in human plasma”.

Q: Which “blood-to-plasma ratio (KRBC/Plasma)” value [1] does the source give for CCN(CC)CCCC(C)Nc1ccnc2cc(Cl)ccc12 (stereo not drawn) [chloroquine] here?
A: The value was 8.5 ± 0.1.

Q: Which “plasma protein binding, reported results” value [3] does the source give for CO[C@H]1/C=C/O[C@@]2(C)Oc3c(C)c(O)c4c(O)c(c(/C=N/N5CCN(C)CC5)c(O)c4c3C2=O)NC(=O)/C(C)=C\C=C\[C@H](C)[C@H](O)[C@@H](C)[C@@H](O)[C@@H](C)[C@H](OC(C)=O)[C@@H]1C [rifampicin] here?
A: Its value is 82–92%.

Q: For C[C@]12CC[C@H]3[C@@H](CCC4=CC(=O)CC[C@@]43C)[C@@H]1CC[C@@H]2O [testosterone], which Papp at 5 h, 25 μM (Permeability by PAMPA) is on record?
A: The Papp at 5 h, 25 μM was 102 ×10⁻⁶ cm/s.

Q: And the “partition coefficient (log P), reported value” [4]?
A: The value was “around 3.28”.

Q: And the “permeability (log Pe), reported results” value [5]?
A: The value was −3.5 to −4.9.

Q: For CCN(CC)CCOC(=O)c1ccc(N)cc1 [procaine], which “stability in rat plasma versus human plasma” value [2] is on record?
A: Its value is “vice verse”.

Q: For NS(=O)(=O)c1cc(C2(O)NC(=O)c3ccccc32)ccc1Cl (stereo not drawn) [chlorthalidone], which “blood-to-plasma ratio (KRBC/Plasma)” value [1] is on record?
A: The value was 20.0 ± 0.3.
